Test results as given in BindingDB's records for doi:10.3109/14756366.2011.578393 (Gitam University, 2012).

Target: Carbonic anhydrase 2 (Homo sapiens, UniProt P00918)
Test: Enzyme Inhibition Assay
Details: pH 7.4; 25 °C
Experimental: Saturated CO2 solutions in water at 25°C were used as substrate. Stock solutions of inhibitors were prepared at a concentration of 10 mM (in dimethyl sulphoxidewater 1:1, v/v) and dilutions up to 1 mM done with the assay buffer mentioned above. […] Inhibitor and enzyme solutions were preincubated together for 10 min at room temperature prior to assay, in order to allow for the formation of the E-I complex.

| SMILES | IC50 [mM] |
| --- | --- |
| Cn1c(=O)c2c(ncn2C)n(C)c1=O | 2 |
| O=C(/C=C/C=C/c1ccc2c(c1)OCO2)N1CCCCC1 [1-[(2E,4E)-5-(1,3-benzodioxol-5-yl)penta-2,4-dienoyl]piperidine] | 2 |
